In patent US9505728B2, “Triazolone compounds and uses thereof” (INCEPTION 2, INC., priority 2012, dated 2016):

target: T1, Human PPARα (Homo sapiens, UniProt Q07869); assay: Human PPARα Reporter Assay (luciferase); assay type: cell-based; conditions: human PPARα reporter cells, overnight incubation, antagonism; read-out: Luciferase IC50
T1 construct: host or cells: proprietary non-human mammalian cells
T1 sequence (Q07869 1-468): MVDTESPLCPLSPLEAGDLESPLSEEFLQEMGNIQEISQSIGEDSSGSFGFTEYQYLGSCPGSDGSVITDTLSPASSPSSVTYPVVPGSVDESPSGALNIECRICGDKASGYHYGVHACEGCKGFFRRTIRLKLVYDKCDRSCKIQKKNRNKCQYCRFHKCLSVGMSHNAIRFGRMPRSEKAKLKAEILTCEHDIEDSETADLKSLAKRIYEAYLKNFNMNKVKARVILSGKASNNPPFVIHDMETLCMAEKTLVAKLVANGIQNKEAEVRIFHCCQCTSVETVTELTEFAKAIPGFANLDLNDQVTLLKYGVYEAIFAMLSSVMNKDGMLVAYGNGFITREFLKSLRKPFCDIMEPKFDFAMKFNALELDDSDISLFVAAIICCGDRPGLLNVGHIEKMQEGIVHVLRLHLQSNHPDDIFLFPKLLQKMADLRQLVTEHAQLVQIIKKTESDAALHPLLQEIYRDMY
How it was run: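 Agonist or antagonist activity read as luciferase light from engineered reporter cells carrying human PPARα and a responsive reporter gene. Cells got compound immediately on dispensing, incubated overnight, then treatment media swapped for luciferase detection reagent.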

| Structure (SMILES) | IC50 [nM] |
| --- | --- |
| CCn1c(CCCc2ccc(-c3csc(C4(O)COC4)n3)cc2)nn(Cc2ccc(C(C)(C)C)cc2)c1=O [Example 203, 1-(4-(tert-Butyl)benzyl)-4-ethyl-3-(3-(4-(2-(3-hydroxyoxetan-3-yl)thiazol-4-yl)phenyl)propyl)-1H-1,2,4-triazol-5(4H)-one] | 873 |
| CCn1c(CCCc2ccc(-c3ccc(C4(O)CCC4)cc3)cc2)nn(Cc2ccc(C(C)(C)C)cc2)c1=O [Example 176, 1-(4-(tert-Butyl)benzyl)-4-ethyl-3-(3-(4′-(1-hydroxycyclobutyl)-[1,1′-biphenyl]-4-yl)propyl)-1H-1,2,4-triazol-5(4H)-one] | 78 |
| CCn1c(CCCc2ccc(-c3cccc(CC(=O)O)c3F)cc2)nn(Cc2ccc(C(C)(C)C)cc2)c1=O [Example 18, 2-(4′-(3-(1-(4-(tert-Butyl)benzyl)-4-ethyl-5-oxo-4,5-dihydro-1H-1,2,4-triazol-3-yl)propyl)-2-fluoro-[1,1′-biphenyl]-3-yl)acetic acid] | 1420 |
| CCn1c(CCCc2ccc(-c3cccc(NC(=O)C4CC4)n3)cc2)nn(Cc2ccc(C(C)(C)C)cc2)c1=O [Example 102, N-(6-{4-[3-(1-{[4-(tert-Butyl)phenyl]methyl}-4-ethyl-5-oxo(1,2,4-triazolin-3-yl))propyl]phenyl}(2-pyridyl))cyclopropylcarboxamide] | 695 |
| CCn1c(CCCc2ccc(-c3ccc(C)c(C(=O)O)n3)cc2)nn(Cc2ccc(C(C)(C)C)cc2)c1=O [Example 165, 6-(4-(3-(1-(4-(tert-Butyl)benzyl)-4-ethyl-5-oxo-4,5-dihydro-1H-1,2,4-triazol-3-yl)propyl)phenyl)-3-methylpicolinic acid] | 202 |
| CCn1c(CCCc2ccc(-c3ccc(C4(C(=O)O)CC4)cc3)cc2)nn(Cc2ccc(C(C)(C)C)cc2)c1=O [Example 137, 1-(4′-(3-(1-(4-(tert-Butyl)benzyl)-4-ethyl-5-oxo-4,5-dihydro-1H-1,2,4-triazol-3-yl)propyl)-[1,1′-biphenyl]-4-yl)cyclopropanecarboxylic acid] | 676 |
| CCn1c(CCCc2ccc(-c3cnc(C4(F)COC4)nc3)cc2)nn(Cc2ccc(C(C)(C)C)cc2)c1=O [Example 170, 1-(4-(tert-Butyl)benzyl)-4-ethyl-3-(3-(4-(2-(3-fluorooxetan-3-yl)pyrimidin-5-yl)phenyl)propyl)-1H-1,2,4-triazol-5(4H)-one] | 41 |
| CCn1c(CCCc2ccc(-c3ccc(C4(F)COC4)cn3)cc2)nn(Cc2ccc(C(C)(C)C)cc2)c1=O [Example 191, 1-(4-(tert-Butyl)benzyl)-4-ethyl-3-(3-(4-(5-(3-fluorooxetan-3-yl)pyridine-2-yl)phenyl)propyl)-1H-1,2,4-triazol-5(4H)-one] | 41 |
| CCCc1ccc(S(=O)(=O)Nc2ccc(-c3ccc(CCCc4nn(Cc5ccc(C(C)(C)C)cc5)c(=O)n4CC)cc3)nc2)cc1 [Example 71, 1-{[4-(tert-Butyl)phenyl]methyl}-4-ethyl-3-{3-[4-(5-{[(4-propylphenyl)sulfonyl]amino}(2-pyridyl))phenyl]propyl}-1,2,4-triazolin-5-one] | 865 |
| CCn1c(CCCc2ccc(-c3cccc(CCC(=O)O)c3)cc2)nn(Cc2ccc(C(C)(C)C)cc2)c1=O [Example 36, 3-(4′-(3-(1-(4-(tert-Butyl)benzyl)-4-ethyl-5-oxo-4,5-dihydro-1H-1,2,4-triazol-3-yl)propyl)-[1,1′-biphenyl]-3-yl)propanoic acid] | 2760 |
| CCn1c(CCCc2ccc(-c3ccc(OC)c(CC(=O)O)c3)c(O)c2)nn(Cc2ccc(C(C)(C)C)cc2)c1=O [Example 145, 2-(4′-(3-(1-(4-(tert-Butyl)benzyl)-4-ethyl-5-oxo-4,5-dihydro-1H-1,2,4-triazol-3-yl)propyl)-2′-hydroxy-4-methoxy-[1,1′-biphenyl]-3-yl) acetic acid] | 692 |
| CCn1c(CCCc2ccc(-c3cccc(CC(=O)O)c3)cc2)nn(Cc2ccc(C(F)(F)F)cc2)c1=O [Example 24, 2-(4′-(3-(4-Ethyl-5-oxo-1-(4-(trifluoromethyl)benzyl)-4,5-dihydro-1H-1,2,4-triazol-3-yl)propyl)-[1,1′-biphenyl]-3-yl)acetic acid] | 579 |
| CCn1c(CCCc2ccc(-c3ccc(C(F)(F)F)c(N)n3)cc2)nn(Cc2ccc(C(C)(C)C)cc2)c1=O [Example 161, 3-(3-{4-[6-Amino-5-(trifluoromethyl)(2-pyridyl)]phenyl}propyl)-1-{[4-(tert-butyl)phenyl]methyl}-4-ethyl-1,2,4-triazolin-5-one] | 638 |
| CCCn1c(CCCc2ccc(-c3ccc(OC)c(CC(=O)O)c3)cc2)nn(Cc2ccc(C(C)(C)C)cc2)c1=O [Example 80, 2-(4′-(3-(1-(4-(tert-Butyl)benzyl)-5-oxo-4-propyl-4,5-dihydro-1H-1,2,4-triazol-3-yl)propyl)-4-methoxy-[1,1′-biphenyl]-3-yl)acetic acid] | 22 |
| CCn1c(CCCc2ccc(-c3cccc(CNS(C)(=O)=O)c3)cc2)nn(Cc2ccc(C(C)(C)C)cc2)c1=O [Example 178, 1-{[4-(tert-Butyl)phenyl]methyl}-4-ethyl-3-{3-[4-(3-{[(methylsulfonyl)amino]methyl}phenyl)phenyl]propyl}-1,2,4-triazolin-5-one] | 417 |
| CCOc1ccc(-c2ccc(CCCc3nn(Cc4ccc(C(C)(C)C)cc4)c(=O)n3CC)cc2)cc1C(=O)O [Example 66, 4′-(3-(1-(4-(tert-Butyl)benzyl)-4-ethyl-5-oxo-4,5-dihydro-1H-1,2,4-triazol-3-yl)propyl)-4-ethoxy-[1,1′-biphenyl]-3-carboxylic acid] | 3 |
| CCn1c(CCCc2ccc(-c3cccc(C(Cc4ccccc4)C(=O)O)c3)cc2)nn(Cc2ccc(C(C)(C)C)cc2)c1=O (stereo not drawn) [Example 47, 2-(3-{4-[3-(1-{[4-(tert-Butyl)phenyl]methyl}-4-ethyl-5-oxo(1,2,4-triazolin-3-yl))propyl]phenyl}phenyl)-3-phenylpropanoic acid] | 685 |
| CCn1c(CCCc2ccc(-c3ccc(NS(C)(=O)=O)cn3)cc2)nn(Cc2ccc(C(C)(C)C)cc2)c1=O [Example 12, N-(6-(4-(3-(1-(4-(tert-Butyl)benzyl)-4-ethyl-5-oxo-4,5-dihydro-1H-1,2,4-triazol-3-yl)propyl)phenyl)pyridin-3-yl)methanesulfonamide] | 63 |
| CCn1c(CCCc2ccc(-c3cccc(CC(=O)O)c3)cc2)nn(Cc2ccc(C(C)(C)C)c(C3CC3)c2)c1=O [Example 85, 2-(4′-(3-(1-(3-Cyclopropyl-4-(tert-butyl)benzyl)-4-ethyl-5-oxo-4,5-dihydro-1H-1,2,4-triazol-3-yl)propyl)-[1,1′-biphenyl]-3-yl)acetic acid] | 662 |
| CCn1c(COCc2ccc(-c3cccc(CC(=O)O)c3)cc2)nn(Cc2ccc(C(C)(C)C)cc2)c1=O [Example 27, 2-(4′(((1-(4-(tert-Butyl)benzyl)-4-ethyl-5-oxo-4,5-dihydro-1H-1,2,4-triazol-3-yl)methoxy)methyl)-[1,1′-biphenyl]-3-yl)acetic acid] | 2170 |
| CCn1c(CCCc2ccc(-c3ccc(OC)c(CNS(=O)(=O)Cc4ccccc4)c3)cc2)nn(Cc2ccc(C(C)(C)C)cc2)c1=O [Example 188, 1-{[4-(tert-Butyl)phenyl]methyl}-4-ethyl-3-(3-{4-[4-methoxy-3-({[benzylsulfonyl]amino}methyl)phenyl]phenyl}propyl)-1,2,4-triazolin-5-one] | 430 |
| CCn1c(CCCc2ccc(-c3ccc(OCC4CC4)c(CC(=O)O)c3)cc2)nn(Cc2ccc(C(C)(C)C)cc2)c1=O [Example 49, 2-(4′-(3-(1-(4-(tert-Butyl)benzyl)-4-ethyl-5-oxo-4,5-dihydro-1H-1,2,4-triazol-3-yl)propyl)-4-(cyclopropylmethoxy)-[1,1′-biphenyl]-3-yl)acetic acid] | 69 |
| CC(C)n1c(CCCc2ccc(-c3cccc(CC(=O)O)c3)cc2)nn(Cc2ccc(C(C)(C)C)cc2)c1=O [Example 31, 2-(4′-(3-(1-(4-(tert-Butyl)benzyl)-4-isopropyl-5-oxo-4,5-dihydro-1H-1,2,4-triazol-3-yl)propyl)-[1,1′-biphenyl]-3-yl)acetic acid] | 1960 |
| CCn1c(CCCc2ccc(-c3cccc(CN)c3)cc2)nn(Cc2ccc(C(C)(C)C)cc2)c1=O [Example 172, 3-(3-{4-[3-(Aminomethyl)phenyl]phenyl}propyl)-1-{[4-(tert-butyl)phenyl]methyl}-4-ethyl-1,2,4-triazolin-5-one] | 647 |
| CCn1c(CCCc2ccc(-c3ccc(OC)c(N)n3)cc2)nn(Cc2ccc(C(C)(C)C)cc2)c1=O [Example 58, 3-{3-[4-(6-Amino-5-methoxy(2-pyridyl))phenyl]propyl}-1-{[4-(tert-butyl)phenyl]methyl}-4-ethyl-1,2,4-triazolin-5-one] | 71 |
| CCn1c(CCCc2ccc(-c3cccc(CC(=O)O)c3)cc2)nn(Cc2ccc(C3CC3)cc2)c1=O [Example 22, 2-(4′-(3-(1-(4-Cyclopropylbenzyl)-4-ethyl-5-oxo-4,5-dihydro-1H-1,2,4-triazol-3-yl)propyl)-[1,1′-biphenyl]-3-yl)acetic acid] | 612 |
| CCn1c(CCCc2ccc(-c3ccc(OC)c(CC(=O)O)c3)cc2OC)nn(Cc2ccc(C(C)(C)C)cc2)c1=O [Example 158, 2-(4′-(3-(1-(4-(tert-Butyl)benzyl)-4-ethyl-5-oxo-4,5-dihydro-1H-1,2,4-triazol-3-yl)propyl)-3′,4-dimethoxy-[1,1′-biphenyl]-3-yl)acetic acid] | 184 |
